In patent US20160083391A1, “TRICYCLIC PIPERAZINE DERIVATIVE” (Sunovion Pharmaceuticals Inc., priority 2014, published 2016):
pIC50: −log10 of the molar value.

Tested on: PDE1
Experiment: In vitro HTRF PDE1 inhibition assay
Type: biochemical
Settings: HTRF cGMP assay, 100 nM cyclic GMP, PDE (1A3, 1B or 1C) with calmodulin, 45 minutes at 37° C.; isoform of the tabulated values not stated
Description: An exemplary procedure for the in vitro Homogenous Time Resolved Fluorescence assay, which can be used to determine the inhibitory action of compounds of the invention toward. PDE1 or its isoforms, follows.
The HTRF PDE1 assay utilized the HTRF (Homogenous Time Resolved Fluorescence) technology, which is based on the competition between unlabeled cyclic nucleotide and cyclic nucleotide labeled with XL665 for the binding to cyclic nucleotide-specific antibody labeled with cryptate. The HTRF signal is thus inversely proportional to the concentration of cyclic nucleotide being measured. Since phosphodiesterases break down cyclic nucleotides the HTRF signal was used to determine PDE activity.
The Cisbio cGMP HTRF assay kit (Cat no: 62GM2PEC) was utilized. Cyclic GMP was diluted to 200 nM in HTRF assay buffer (1 mM CaCl2, 10 mM MgCl2, 10 mM Tris-HCl, 0.1% BSA, pH7.4). 10 μl of compound or DMSO was diluted in 200 nM cyclic GMP solution and added to wells of a 96 well white plate to give 100 nM cyclic GMP in 1% DMSO final concentration. PDE (1A3, 1B or 1C) was diluted to 2× working concentration in HTRF assay buffer with […] Calmodulin, and 10 μl was added to initiate the reaction. The plate was then incubated for 45 minutes at 37° C. d2-Labelled cyclic GMP and anti-cGMP cryptate were diluted in 50 mM phosphate buffer, 0.8M KF, 1% Triton X100, 0.2% BSA, pH7.0. Following incubation 10 μl d2-cGMP, then 10 μl anti cGMP cryptate were added to each well and the plate was incubated for 45 minutes at room temperature. The plate was then read on Perkin Elmer Victor at 2 different FRET readings ex/emm 340 nm/665 nm and 340 nm/615 nm.
Compounds having an IC50 of <1 μM, are denoted as +++. Compounds having an IC50 of 1-10 μM, are denoted as ++. Compounds having an IC50 of >10 μM, are denoted as +.

| Structure (SMILES) | pIC50 |
| --- | --- |
| O=c1c2cnn(C3CCCC3)c2nc2n1CCN(Cc1cccc(Cl)c1)C2 [Compound I-72, 8-(3-Chlorobenzyl)-1-cyclopentyl-6,7,8,9-tetrahydropyrazino[1,2-a]pyrazolo[3,4-d]pyrimidin-4(1H)-one] | > 6.00 |
| CC(C)n1ncc2c(=O)n3c(nc21)CN(Cc1cnccn1)CC3 [Compound I-202, 1-Isopropyl-8-(pyrazin-2-ylmethyl)-6,7,8,9-tetrahydropyrazino[1,2-a]pyrazolo[3,4-d]pyrimidin-4(1H)-one] | 5.00 to 6.00 |
| CC(C)c1nn(C)c2c(=O)n3c(nc12)C(C)N(C)CC3 (racemic) [Compound I-41, (±)-3-Isopropyl-1,5,6-trimethyl-5,6,7,8-tetrahydropyrazino[1,2-a]pyrazolo[4,3-d]pyrimidin-10(1H)-one] | < 5.00 |
| CC(C)(C)n1ncc2c(=O)n3c(nc21)CN(c1ccc(Cl)cc1)CC3 [Compound I-247, 1-(tert-Butyl)-8-(4-chlorophenyl)-6,7,8,9-tetrahydropyrazino[1,2-a]pyrazolo[3,4-d]pyrimidin-4(1H)-one] | 5.00 to 6.00 |
| CC(C)n1ncc2c(=O)n3c(nc21)CN(Cc1ccc(-c2ccccc2)cc1)CC3 [Compound I-66, 8-([1,1′-Biphenyl]-4-ylmethyl)-1-isopropyl-6,7,8,9-tetrahydropyrazino[1,2-a]pyrazolo[3,4-d]pyrimidin-4(1H)-one] | 5.00 to 6.00 |
| O=c1c2cnn(C3CCOC3)c2nc2n1CCN(Cc1ccccc1)C2 (racemic) [Compound I-218, (±)-8-Benzyl-1-(tetrahydrofuran-3-yl)-6,7,8,9-tetrahydropyrazino[1,2-a]pyrazolo[3,4-d]pyrimidin-4(1H)-one] | 5.00 to 6.00 |
| COc1ccc(CN2CCn3c(nc4c(cnn4CC(C)C)c3=O)C2)cc1 [Compound I-83, 1-Isobutyl-8-(4-methoxybenzyl)-6,7,8,9-tetrahydropyrazino[1,2-a]pyrazolo[3,4-d]pyrimidin-4(1H)-one] | > 6.00 |
| Cc1ncc(CN2CCn3c(nn4c(C5CCCC5)ncc4c3=O)C2)cn1 [Compound I-197, 3-Cyclopentyl-7-((2-methylpyrimidin-5-yl)methyl)-8,9-dihydro-6H-imidazo[5,1-f]pyrazino[2,1-c][1,2,4]triazin-11(7H)-one] | 5.00 to 6.00 |
| O=c1c2onc(C3CCCC3)c2nc2n1CCN(Cc1ccc(Cl)cc1)C2 [Compound I-130, 6-(4-Chlorobenzyl)-3-cyclopentyl-7,8-dihydro-5H-isoxazolo[4,5-d]pyrazino[1,2-a]pyrimidin-10(6H)-one] | 5.00 to 6.00 |
| CC1CN(Cc2ccc(Cl)cc2)Cc2nc3c(cnn3C3CCCC3)c(=O)n21 (racemic) [Compound I-121, (±)-8-(4-Chlorobenzyl)-1-cyclopentyl-6-methyl-6,7,8,9-tetrahydropyrazino[1,2-a]pyrazolo[3,4-d]pyrimidin-4(1H)-one] | 5.00 to 6.00 |
| O=c1c2cnn(C3CCCC3)c2nc2n1CCN(Cc1ccccc1)C2 [Compound I-52, 8-Benzyl-1-cyclopentyl-6,7,8,9-tetrahydropyrazino[1,2-a]pyrazolo[3,4-d]pyrimidin-4(1H)-one] | 5.00 to 6.00 |
| CC(C)Cn1ncc2c(=O)n3c(nc21)CN(Cc1ccccc1Cl)CC3 [Compound I-68, 8-(2-Chlorobenzyl)-1-isobutyl-6,7,8,9-tetrahydropyrazino[1,2-a]pyrazolo[3,4-d]pyrimidin-4(1H)-one] | 5.00 to 6.00 |
| COc1ccc(CN2Cc3nc4c(cnn4C(C)C)c(=O)n3CC2C)cc1 (racemic) [Compound I-146, (±)-1-Isopropyl-8-(4-methoxybenzyl)-7-methyl-6,7,8,9-tetrahydropyrazino[1,2-a]pyrazolo[3,4-d]pyrimidin-4(1H)-one] | 5.00 to 6.00 |
| CC(C)c1nn(C)c2c(=O)n3c(nc12)C(Cc1ccccc1)NCC3 (racemic) [Compound I-15, (±)-5-Benzyl-3-isopropyl-1-methyl-5,6,7,8-tetrahydropyrazino[1,2-a]pyrazolo[4,3-d]pyrimidin-10(1H)-one] | < 5.00 |
| CC(C)c1nnc2c(=O)n3c(nn12)CN(CCc1ccccc1)CC3 [Compound I-225, 3-Isopropyl-7-phenethyl-8,9-dihydro-6H-pyrazino[2,1-c][1,2,4]triazolo[3,4-f][1,2,4]triazin-11(7H)-one] | 5.00 to 6.00 |
| CC1c2nc3c(cnn3C(C)C)c(=O)n2CCN1C (racemic) [Compound I-21, (±)-1-Isopropyl-8,9-dimethyl-6,7,8,9-tetrahydropyrazino[1,2-a]pyrazolo[3,4-d]pyrimidin-4(1H)-one] | < 5.00 |
| O=c1c2c(Nc3ccccc3)n(Cc3ccccc3)nc2nc2n1CCNC2 [Compound I-59, 2-Benzyl-3-(phenylamino)-6,7,8,9-tetrahydropyrazino[1,2-a]pyrazolo[3,4-d]pyrimidin-4(2H)-one] | < 5.00 |
| O=c1c2cnc(C3CCOCC3)n2nc2n1CCN(c1ccc(Cl)cc1)C2 [Compound I-236, 7-(4-Chlorophenyl)-3-(tetrahydro-2H-pyran-4-yl)-8,9-dihydro-6H-imidazo[5,1-f]pyrazino[2,1-c][1,2,4]triazin-11(7H)-one] | > 6.00 |
| CCCn1ncc2c(=O)n3c(nc21)CN(c1ccc(Cl)c(Cl)c1)CC3 [Compound I-168, 8-(3,4-Dichlorophenyl)-1-propyl-6,7,8,9-tetrahydropyrazino[1,2-a]pyrazolo[3,4-d]pyrimidin-4(1H)-one] | 5.00 to 6.00 |
| COc1cccc(CN2CCn3c(nc4c(cnn4CC(C)C)c3=O)C2)c1 [Compound I-80, 1-Isobutyl-8-(3-methoxybenzyl)-6,7,8,9-tetrahydropyrazino[1,2-a]pyrazolo[3,4-d]pyrimidin-4(1H)-one] | 5.00 to 6.00 |

The remaining lines, values ahead:

| pIC50 | Structure (SMILES) |
| --- | --- |
| 5.00 to 6.00 | CC(C)Cn1ncc2c(=O)n3c(nc21)CN(c1ccccc1Cl)CC3 [Compound I-86, 8-(2-Chlorophenyl)-1-isobutyl-6,7,8,9-tetrahydropyrazino[1,2-a]pyrazolo[3,4-d]pyrimidin-4(1H)-one] |
| < 5.00 | O=c1c2nnn(C3CCCC3)c2nc2n1CCN(Cc1ccc(Cl)cc1)C2 [Compound I-128, 6-(4-Chlorobenzyl)-3-cyclopentyl-5,6,7,8-tetrahydropyrazino[1,2-a][1,2,3]triazolo[4,5-d]pyrimidin-10(3H)-one] |
| > 6.00 | O=c1c2cnn(C3CCOCC3)c2nc2n1CCN(Cc1ccc(Cl)cc1)C2 [Compound I-211, 8-(4-Chlorobenzyl)-1-(tetrahydro-2H-pyran-4-yl)-6,7,8,9-tetrahydropyrazino[1,2-a]pyrazolo[3,4-d]pyrimidin-4(1H)-one] |
| > 6.00 | O=c1n2c(nc3c(C4CCCC4)ncn13)CN(Cc1ccc(Cl)cc1)CC2 [Compound I-258, 6-(4-Chlorobenzyl)-3-cyclopentyl-7,8-dihydro-5H-imidazo[1,5-a]pyrazino[2,1-d][1,3,5]triazin-10(6H)-one] |
| > 6.00 | CC(C)c1ncc2c(=O)n3c(nn12)CN(c1ccc(F)cc1)CC3 [Compound I-176, 7-(4-Fluorophenyl)-3-isopropyl-8,9-dihydro-6H-imidazo[5,1-f]pyrazino[2,1-c][1,2,4]triazin-11(7H)-one] |
| 5.00 to 6.00 | COc1ccc(CN2CCn3c(nc4c(cnn4C4CCCC4)c3=O)C2C)cc1 (racemic) [Compound I-118, (±)-1-Cyclopentyl-8-(4-methoxybenzyl)-9-methyl-6,7,8,9-tetrahydropyrazino[1,2-a]pyrazolo[3,4-d]pyrimidin-4(1H)-one] |
| > 6.00 | CC1Cn2c(nc3c(cnn3C(C)C)c2=O)CN1Cc1cccc(F)c1 (racemic) [Compound I-149, (±)-8-(3-Fluorobenzyl)-1-isopropyl-7-methyl-6,7,8,9-tetrahydropyrazino[1,2-a]pyrazolo[3,4-d]pyrimidin-4(1H)-one] |
| 5.00 to 6.00 | COCCn1ncc2c(=O)n3c(nc21)CN(c1ccc(Cl)cc1)CC3 [Compound I-256, 8-(4-Chlorophenyl)-1-(2-methoxyethyl)-6,7,8,9-tetrahydropyrazino[1,2-a]pyrazolo[3,4-d]pyrimidin-4(1H)-one] |
| 5.00 to 6.00 | O=c1c2cnc(C3CCCC3)n2nc2n1CCN(Cc1cncnc1)C2 [Compound I-193, 3-Cyclopentyl-7-(pyrimidin-5-ylmethyl)-8,9-dihydro-6H-imidazo[5,1-f]pyrazino[2,1-c][1,2,4]triazin-11(7H)-one] |
| 5.00 to 6.00 | CC(C)Cc1nnc2c(=O)n3c(nn12)CN(CCc1ccccc1)CC3 [Compound I-227, 3-Isobutyl-7-phenethyl-8,9-dihydro-6H-pyrazino[2,1-c][1,2,4]triazolo[3,4-f][1,2,4]triazin-11(7H)-one] |
| > 6.00 | Cc1cnc(CN2CCn3c(nn4c(C5CCCC5)ncc4c3=O)C2)cn1 [Compound I-209, 3-Cyclopentyl-7-((5-methylpyrazin-2-yl)methyl)-8,9-dihydro-6H-imidazo[5,1-f]pyrazino[2,1-c][1,2,4]triazin-11(7H)-one] |
